Where “and” joins values, the source holds several entries; their conditions need not be identical. Identical values can stand only once.
Tests used:
[1] = system: human multiple myeloma cells NCI-H929 xenografts; assay: Tumor inhibitory effect on multiple myeloma cells NCI-H929 xenografts in nude mice; type: in vivo, BALB/c nude mouse; details: for IR By RTV % / IR By TW % / RTV (X ± SD) / TW (X ± SD, g) / Bw (X ± SD, g) end / TV (X ± SD, mm^3) End / Bw (X ± SD, g) initial / TV (X ± SD, mm^3) initial: once every 4 days, intraperitoneal; for IR By RTV % / IR By TW % / RTV (X ± SD) / TW (X ± SD, g): 11th day; for Bw (X ± SD, g) end / TV (X ± SD, mm^3) End: end (11th day after inoculation)
Protocol: Multiple myeloma cells were routinely passaged in vitro, inoculated in 40 6-7-week-old BALB/c nude mouse, each mouse was subcutaneously injected human multiple myeloma cells NCI-H929 at its right axillary. Weighed after two days. The mice were randomly divided into five groups, eight in each group. Each group was dosed as follows: • i. physiological saline control group • ii. Topotecan positive control group, 2 mg/kg, once every 4 days, intraperitoneal injection • iii. WQ1001, high-dose group, 35 mg/kg, once every 4 days, intraperitoneal injection • iv. WQ1001, middle dose group, 25 mg/kg, once every 4 days, intraperitoneal injectionv. v. WQ1001, low dose group, 18 mg/kg, once every 4 days, intraperitoneal injection
Body weight(BW) as well as long diameter and short diameter of tumors were measured every two days. Tumor volume was calculated according to the Equation 1. On the 11th day after inoculation, the mice were weighed, long diameter and short diameter of tumors were measured, and relative tumor volume (RTV) was calculated according to Equation 2. Mice were sacrificed by cervical dislocation and the tumor mass was stripped and weighed. Inhibition rate (IR) was calculated according to the Equation 3. RTV and tumor weight (TW) for each group were analyzed through T-test.

[2] = Water-solubility test of compounds of Formula II and Formula IV; type: physicochemical; details: the C-20 phosphite salt (Formula II) itself, read-out: Water-solubility of Comp of Formula II
[3] = system: S1 and S1-M1-80 (characteristic expression of ABCG2/BCRP); assay: Anti-drug resistance test (MTT, resistance index); type: cell-based; details: S1-M1-80 (ABCG2/BCRP) versus S1 cells, 72 h, from IC50
Protocol: Logarithmic growth phase S1 and S1-M1-80 (characteristic expression of ABCG2/BCRP) were prepared as cell suspension of 2.5×10^4 cells/ml and 6×10^4 cells/ml, and were seeded in into 96-well plates with 0.19 ml/well. After incubating in cell incubator for 24 hours at 37° C., 5% CO2, sample solutions in various concentrations were added at 0.01 ml/well. Stroke-physiological saline solution is used as control well. Each treatment is conducted in 3 parallel wells. The drugs were added and incubated additional 72 h hours. And 5 mg/ml of MTT is added at 0.02 ml/well before four hours of the end the incubation. The culture liquid is removed at the end of incubation. Each well was added 0.1 ml of DMSO and OD values were measured at wavelength of 540 nm and reference wavelength of 655 nm. The experiment was repeated three times. Equation 1 is used to calculate cell growth inhibition rate (IR); and Equation 2 is used to calculate resistance index. Bliss method is used to calculate the 50% inhibitory concentration (IC50).

[4] = Plasma concentration of WQ1001 (HM 910) and its metabolite CPT in rats after intravenous injection; type: in vivo; details: for HM 910 Plasma / HM 910 Plasma (ng/mL): individual rats 1-6
Protocol: Intravenous administration in rats: six healthy SD rats, weighing 180˜220 g, three males and three females. Fasting for 12 h before dosing, free access to water. 20 mg/kg of HM 910 was administrated by intravenous bolus injection though caudal vein of the rats, with dose-volume volume of 1.0 mL/kg. Blooding 0.25 mL from the animal through the jugular vein, anti-clotting with heparin sodium, adding 0.2% formic acid within the anticoagulant. Blooding at following time points: 5 min, 15 min, 30 min, 45 min, 1 h, 1.5 h, 2 h, 2.5 h, 3 h, 4 h before and after administration. Blood samples were placed on ice after blooding and the plasma was centrifugal separated within 30 minutes (centrifugation conditions: 8000 r/min, 6 minutes, room temperature). The plasma collected was stored at −80° C. for analysis.

[5] = SD rats, 20 mg/kg HM 910 i.v. bolus, 2.5 hr, 20 mg/kg

In the case of `CC[C@@]1(O[PH](=O)[O-])C(=O)OCc2c1cc1n(c2=O)Cc2cc3ccccc3nc2-1.[Na+]` [WQ1001], the “anti-tumor effect on NCI-H929 xenografts in nude mice (in words)” value (shortened to “anti-tumor effect on NCI-H929 xenografts”) ([1]; 25 mg/kg) was “significant anti-tumor effect”, the “IR By RTV %” value ([1]; HM910 l-dose 18 mg/kg) was 66.5% and the “IR By TW %” value ([1]; HM910 l-dose 18 mg/kg) was 72.7%. The “RTV (X ± SD)” value ([1]; HM910 l-dose 18 mg/kg) was 13.5 ± 11.0, the “TW (X ± SD, g)” value ([1]; HM910 l-dose 18 mg/kg) was 0.41 ± 0.34 g and the “Bw (X ± SD, g) end” value ([1]; HM910 l-dose 18 mg/kg) was 19.2 ± 0.9 g. The “TV (X ± SD, mm^3) End” value ([1]; HM910 l-dose 18 mg/kg) was 653.0 ± 560.4 mm^3, the “Bw (X ± SD, g) initial” value ([1]; HM910 l-dose 18 mg/kg) was 21.0 ± 1.6 g and the “TV (X ± SD, mm^3) initial” value ([1]; HM910 l-dose 18 mg/kg) was 48.6 ± 4.9 mm^3. The “IR By RTV %” value ([1]; HM910 m-dose 25 mg/kg) was 75.7%, the “IR By TW %” value ([1]; HM910 m-dose 25 mg/kg) was 82.0% and the “RTV (X ± SD)” value ([1]; HM910 m-dose 25 mg/kg) was 9.80 ± 11.6. For the same compound, the “TW (X ± SD, g)” value ([1]; HM910 m-dose 25 mg/kg) was 0.27 ± 0.35 g, the “Bw (X ± SD, g) end” value ([1]; HM910 m-dose 25 mg/kg) was 18.5 ± 0.7 g and the “TV (X ± SD, mm^3) End” value ([1]; HM910 m-dose 25 mg/kg) was 480.1 ± 570.6 mm^3. The “Bw (X ± SD, g) initial” value ([1]; HM910 m-dose 25 mg/kg) was 17.3 ± 0.7 g, the “TV (X ± SD, mm^3) initial” value ([1]; HM910 m-dose 25 mg/kg) was 48.2 ± 7.8 mm^3 and the “IR By RTV %” value ([1]; HM910 h-dose 35 mg/kg) was 86.1%. For the same compound, the “IR By TW %” value ([1]; HM910 h-dose 35 mg/kg) was 88.2%, the “RTV (X ± SD)” value ([1]; HM910 h-dose 35 mg/kg) was 5.61 ± 9.74 and the “TW (X ± SD, g)” value ([1]; HM910 h-dose 35 mg/kg) was 0.18 ± 0.36 g. For the same compound, the “Bw (X ± SD, g) end” value ([1]; HM910 h-dose 35 mg/kg) was 18.8 ± 0.6 g, the “TV (X ± SD, mm^3) End” value ([1]; HM910 h-dose 35 mg/kg) was 272.3 ± 483.1 mm^3 and the “Bw (X ± SD, g) initial” value ([1]; HM910 h-dose 35 mg/kg) was 17.3 ± 0.7 g. The “TV (X ± SD, mm^3) initial” value ([1]; HM910 h-dose 35 mg/kg) was 46.9 ± 8.8 mm^3, the “anti-tumor effect on NCI-H929 xenografts” value ([1]; high dose, 35 mg/kg) was “significant anti-tumor effect” and the “anti-tumor effect on NCI-H929 xenografts” value ([1]; low-dose group, 18 mg/kg) was “significant anti-tumor effect”. The solubility [2] was over 10000 µg/mL, the Resistance index [3] was 6 and the “HM 910 Plasma” value ([4]; SD rats, 20 mg/kg HM 910 i.v. bolus, 0.083 hr, 20 mg/kg) was 56652 ng/mL and 31029 ng/mL and 37348 ng/mL and 56722 ng/mL and 45165 ng/mL and 21141 ng/mL. The “HM 910 Plasma” value ([4]; SD rats, 20 mg/kg HM 910 i.v. bolus, 0.25 hr, 20 mg/kg) was 13690 ng/mL and 9484 ng/mL and 7271 ng/mL and 16294 ng/mL and 6761 ng/mL and 5639 ng/mL, the “HM 910 Plasma” value ([4]; SD rats, 20 mg/kg HM 910 i.v. bolus, 0.5 hr, 20 mg/kg) was 2530 ng/mL and 1425 ng/mL and 1633 ng/mL and 4582 ng/mL and 1536 ng/mL and 1628 ng/mL and the “HM 910 Plasma” value ([4]; SD rats, 20 mg/kg HM 910 i.v. bolus, 0.75 hr, 20 mg/kg) was 919 ng/mL and 574 ng/mL and 539 ng/mL and 1578 ng/mL and 617 ng/mL and 607 ng/mL. The “HM 910 Plasma” value ([4]; SD rats, 20 mg/kg HM 910 i.v. bolus, 1 hr, 20 mg/kg) was 499 ng/mL and 259 ng/mL and 240 ng/mL (2×) and 668 ng/mL and 256 ng/mL, the “HM 910 Plasma” value ([4]; SD rats, 20 mg/kg HM 910 i.v. bolus, 1.5 hr, 20 mg/kg) was 97.2 ng/mL and 78.0 ng/mL and 45.2 ng/mL and 162 ng/mL and 59.0 ng/mL and 96.4 ng/mL and the “HM 910 Plasma” value ([4]; SD rats, 20 mg/kg HM 910 i.v. bolus, 2 hr, 20 mg/kg) was 18.3 ng/mL and 25.7 ng/mL and 51.5 ng/mL and 39.5 ng/mL and 20.8 ng/mL and 53.7 ng/mL. For the same compound, the “HM 910 Plasma” value [4, 5] was 28.2 ng/mL and 17.2 ng/mL and 18.4 ng/mL and 11.0 ng/mL, the “HM 910 Plasma (ng/mL)” value [4, 5] was “BLQ” and the “HM 910 Plasma (ng/mL)” value ([4]; SD rats, 20 mg/kg HM 910 i.v. bolus, 3 hr) was “BLQ”. The “HM 910 Plasma (ng/mL)” value ([4]; SD rats, 20 mg/kg HM 910 i.v. bolus, 4 hr) was “BLQ”, the “Fate of the tested drug after injection into the rats” value ([4]; SD rats, 20 mg/kg i.v. bolus) was “degraded and the releases camptothecin” and the concentration at 0.083 h ([4]; both sexes, Sprague-Dawley (SD), rat, plasma, iv, 20 mg/kg, 20 mg/kg HM 910 i.v. bolus, 0.083 hr, mean of rats) was 41300 ng/mL. The concentration at 0.25 h ([4]; both sexes, Sprague-Dawley (SD), rat, plasma, iv, 20 mg/kg, 20 mg/kg HM 910 i.v. bolus, 0.25 hr, mean of rats) was 9860 ng/mL, the concentration at 0.5 h ([4]; both sexes, Sprague-Dawley (SD), rat, plasma, iv, 20 mg/kg, 20 mg/kg HM 910 i.v. bolus, 0.5 hr, mean of rats) was 2220 ng/mL and the concentration at 0.75 h ([4]; both sexes, Sprague-Dawley (SD), rat, plasma, iv, 20 mg/kg, 20 mg/kg HM 910 i.v. bolus, 0.75 hr, mean of rats) was 806 ng/mL. It also gave a concentration at 1 h ([4]; both sexes, Sprague-Dawley (SD), rat, plasma, iv, 20 mg/kg, 20 mg/kg HM 910 i.v. bolus, 1 hr, mean of rats) of 360 ng/mL, a concentration at 1.5 h ([4]; both sexes, Sprague-Dawley (SD), rat, plasma, iv, 20 mg/kg, 20 mg/kg HM 910 i.v. bolus, 1.5 hr, mean of rats) of 89.6 ng/mL and a concentration at 2 h ([4]; both sexes, Sprague-Dawley (SD), rat, plasma, iv, 20 mg/kg, 20 mg/kg HM 910 i.v. bolus, 2 hr, mean of rats) of 34.9 ng/mL. It also gave a concentration at 2.5 h ([4]; both sexes, Sprague-Dawley (SD), rat, plasma, iv, 20 mg/kg, 20 mg/kg HM 910 i.v. bolus, 2.5 hr, mean of rats) of 18.7 ng/mL.
